Converted amounts (≈) assume the structure as drawn.
Columns and labels:
[1] = tested on: L1210 leukemia cells; assay: Inhibiting proliferation of L1210 leukemia cell; type: cell-based; conditions: Mus musculus, 96 h, 1×10^5 cells/ml, RPMI with 10% FCS, 37° C., 4 days, trypan blue
Protocol: Measurement of the Action of Inhibiting Proliferation of L1210 Leukemia Cell
L1210 leukemia cells were added to an RPMI medium containing 10% FCS (fetal calf serum), and the concentration of the cells was adjusted to 1×10^5 cells/ml. Each of the test compounds shown in Table 5 was dissolved in 99.5% ethanol. Prior to use, the final concentration of the ethanol solution was adjusted to less than 0.1%, and it was added to the culture medium. The culture medium was then maintained at 37° C. in a stationary condition for 4 days. After the cultivation, the number of surviving cells was measured by dyeing with trypan blue. As a control, 0.1% ethanol was used. A dose-reaction curve was plotted from the ratios of proliferation against the control, and IC50 was determined.

[2] = tested on: L1210 leukemia cells; assay: Cyto protection: cytotoxicity on L1210 leukemia cells and safety coefficient; type: cell-based, mouse; conditions: for Safety coefficient: LD50 on the normal cells/LD50 on the L1210 cells
Protocol: (§1) Measurement of Cyto Protection
(§2) Stomach epithelial cells taken from a rabbit fetus and aortic smooth muscle cells from a rat were used as normal cells, and L1210 leukemia cells were used as cancer cells. The cytotoxicity of each of the compounds shown in Table 6 on the normal cells was xamined.
The cytotoxicities LD50) of each of the test compounds on the stomach epithelial cells and the aortic smooth muscle cells were determined.

[3] = Cyto protection: cytotoxicity on aortic smooth muscle cells; type: cell-based; conditions: aortic smooth muscle cells; rat cells, MEM containing 10% CS; read-out: LD50 Aortic smooth muscle cells
Protocol: as §1, §2
(§3) Specifically, the stomach epithelial cells were cultivated in DME containing 20% FCS, and the aortic smooth muscle cells were cultivated in MEM containing 10% CS. Each of the test compounds was dissolved in ethanol and added to the culture broth in an amount of 0.1%. The mixture was filtered through a millipore filter.
(§4) The cytotoxicities LD50) of each of the test compounds on the stomach epithelial cells and the aortic smooth muscle cells were determined. Furthermore, from the LFD50 values, the safety coefficient (LD50 on the normal cells/LD50 on the L1210 cells) was calculated, and the results are also shown in Table 6.

[4] = Acute toxicity; conditions: mouse, in vivo, iv, four weeks old LR strain male mice (SPF)
Protocol: Measurement of Acute Toxicity
The acute toxicity of one typical compound of this invention was measured by a customary method using four weeks old LR strain male mice (SPF).

[5] = Cyto protection: cytotoxicity on stomach epithelial cells; type: cell-based; conditions: stomach epithelial cells; rabbit fetus cells, DME containing 20% FCS; read-out: LD50 Stomach epitherial cells
Protocol: as §1, §2, §3, §4

[6] = tested on: aortic smooth muscle cells; assay: Cyto protection: cytotoxicity on aortic smooth muscle cells; type: cell-based; conditions: rat cells, MEM containing 10% CS
Protocol: as §1, §2, §3, §4

[7] = tested on: Stomach epithelial cells; assay: Cyto protection: cytotoxicity on stomach epithelial cells; type: cell-based; conditions: rabbit fetus cells, DME containing 20% FCS
Protocol: as §1, §2, §3, §4

[8] = tested on: Ehrlich ascites carcinoma cells; assay: Antitumor effect on Ehrlich ascites carcinoma in ICR mice; type: in vivo; conditions: 30 mg/kg/day i.p. (methyl ester) or 20 mg/kg/day i.p. (12-epimer) for 5 days; for average number of days of survival: from 24 hours after tumor inoculation
Protocol: Measurement of the Antitumor Effect On Ehrich Ascites Carcinoma
1×10^5 Ehrlich ascites carcinoma cells were intraperitoneally administred to ICR mice. After the lapse of 24 hours, 30 mg/kg/day of 7(E)-7,8-dehydroprostaglandin A1 methyl ester and 20 mg/kg/day of its 12-epimer were each intraperitoneally administered to the mice for 5 days. The periods of survival of these animals were examined.

[9] = tested on: mouse leukemia cell L1210; conditions: Biochem. Biophys. Res. Commn., 105, 956 (1982); cited from earlier work

Compound: CCCCCCC=CC1C=CC(=O)C1=CCCCCCC(=O)OC (stereo not shown) [4-(1-octenyl)-5-(6-methoxycarbonylhexylidene)-2-cyclopentenone]
- IC50 [1]: 0.3 µg/mL (≈ 0.902 µM)

Compound: COC(=O)CCCC#CC=C1C(=O)C=CC1C=CC(O)C1CCCC1 (stereo not shown) [4-(3-Hydroxy-3-cyclopentyl-1-propenyl)-5-(6-methoxycarbonyl-2-hexynylidene)-2-cyclopentenone]
- IC50 [1]: 0.3 µg/mL (≈ 0.876 µM)

Compound: COC(=O)CCCC#CC(O)C1C(=O)C=CC1C=CC(O)C1CCCC1 (stereo not shown) [4-(3-hydroxy-3-cyclopentyl-1-propenyl)-5-(1-hydroxy-6-methoxycarbonyl-2-hexyn-1-yl)-2-cyclopentenone]
- IC50 [1]: 0.2 µg/mL (≈ 0.555 µM)

Compound: CCCCC1C=CC(=O)C1=CCCCCCC(=O)OC (stereo not shown) [4-Butyl-5-(6-methoxycarbonylhexylidene)-2-cyclopentenone]
- IC50 [1]: 0.3 µg/mL (≈ 1.08 µM)

Compound: CCCCC[C@H](O)/C=C/[C@H]1C=CC(=O)/C1=C/CCCCCC(=O)O [7(E)-7,8-Dehydroprostaglandin A1]
- IC50 [1]: 0.4 µg/mL (≈ 1.2 µM)
- Safety coefficient [2]: 6-25
- IC50 ([2]; Mus musculus, L1210, cancer cells, read-out: LD50 L1210 leukemia cells): 0.2 to 0.3 µg/mL (≈ 0.598 to 0.897 µM)
- CC50 [3]: 2 to 5 µg/mL (≈ 5.98 to 14.9 µM)
- LD50 [4]: 140 mg/kg
- CC50 [5]: 2 to 5 µg/mL (≈ 5.98 to 14.9 µM)

Compound: CCCCC[C@H](O)/C=C/[C@@H]1/C(=C\CCCCCC(=O)O)C(=O)C[C@H]1O [7(E)-7,8-Dehydroprostaglandin E1]
- IC50 [1]: 0.7 µg/mL (≈ 1.99 µM)

Compound: CCCCCC(O)C=CC1C=CC(=O)C1=CCCCCCC(=O)O (stereo not shown) [12-Epimer of 7(E)-7,8-dehydroprostaglandin A1]
- Safety coefficient [2]: 2.5-10
- LD50 L1210 leukemia cells ([2]; cancer cells): 0.2 to 0.4 µg/mL
- LD50 Aortic smooth muscle cells [6]: 1 to 2 µg/mL
- LD50 Stomach epitherial cells [7]: 1 to 2 µg/mL

Compound: CCCCC[C@H](O)/C=C/[C@@H]1C=CC(=O)/C1=C/CCCCCC(=O)OC [12-epi-(7E)-7,8-dehydro PGA1 methyl ester]
- IC50 [1]: 0.2 µg/mL (≈ 0.574 µM)
- increase of life span (ILS %) over the control [8]: 76.5%
- ratio of survival for more than 60 days [8]: 1/6
- average number of days of survival [8]: 33.0 ± 9.8 days

Compound: CCCCC[C@H](O)/C=C/[C@H]1C=CC(=O)/C1=C/CCCCCC(=O)OC [(7E)-7,8-dehydro PGA1 methyl ester]
- increase of life span (ILS %) over the control [8]: 65.8%
- ratio of survival for more than 60 days [8]: 2/6
- average number of days of survival [8]: 31 ± 1.9 days

Compound: COC12C(COC(N)=O)C3=C(C(=O)C(C)=C(N)C3=O)N1CC1NC12 (stereo not shown) [Mytomycin C, reference compound]
- CC50 [3]: 0.01 µg/mL (≈ 0.0299 µM)
- CC50 [5]: 0.01 to 0.02 µg/mL (≈ 0.0299 to 0.0598 µM)

Compound: CCCCC[C@H](O)/C=C/[C@H]1C(=O)C[C@H](O)[C@@H]1C/C=C\CCCC(=O)O [PGD2]
- IC50 of PGD2 on L1210 cell [9]: 2.4 micrograms/ml

Reference: US4766147A, “Novel 5-membered cyclic compounds, process for production thereof, and pharmaceutical use thereof” (priority 1982, dated 1988)
